# Measurements taken from patent US20200071310A1, “N-ARYL PYRAZOLES AS NRF2 REGULATORS” (GLAXOSMITHKLINE INTELLECTUAL PROPERTY DEVELOPMENT LIMITED, priority 2016, published 2020).
# Where a name gives a salt, the structure may show the parent alone.
# Tests used:
# [1] = biological target: T1, full length Keap1 protein / full length NRF2 protein (Homo sapiens, UniProt Q14145); assay: NRF2-Keap1 TR-FRET Low Protein Assay; type: binding
# T1 construct: full length NRF2 protein and full length Keap1 protein (Keap1 exists a dimer) are used; His
# Text: In the NRF2-Keap1 TR-FRET (time-resolved fluorescence resonance energy transfer) low protein assay, full length NRF2 protein and full length Keap1 protein (Keap1 exists a dimer) are used. The assay detects a compound's ability to displace the binding of Keap1 FlagHis with biotinylated Avi-NRF2 protein. Biotin-NRF2 binds to streptavidin-europium (a component of the detection mix) and Keap1 FlagHis is recognized by anti-Flag APC (allophycocyanin) antibody (also a component of the detection mix). If binding occurs between the two proteins, there will be an energy transfer from the Eu+3 (donor) at 615 nm to the APC (acceptor) at 665 nm. A potential NRF2 inhibitor will cause a reduction in the TR-FRET signal by interfering with the binding of Keap1 to NRF2.
# Ten nanoliters of 100× compound dose response curves (serial 3-fold dilutions) in DMSO were stamped using an Echo liquid handling system (Labcyte) into 384-well, low volume, black assay plates (Greiner, #784076), with DMSO in columns 6 and 18. An additional 90 nl DMSO was added to each well, to bring the total volume to 100 nl per well. The top concentration of compound was located in columns 1 and 13, with the serial dilutions going across the row. All reagents were diluted in assay buffer (50 mM Tris, pH 8.0, 5 mM MgCl2, 100 mM NaCl, 0.005% BSA, 1 mM DTT, and 2 mM CHAPS. The BSA, DTT, and CHAPS were added to the assay buffer on the day of assay. Using a Multidrop Combi (Thermo Electron Corporation) equipped with a metal tip dispenser, 5 ul of 1.25 nM Keap1 FlagHis protein was added to all wells of the compound plate, with the exception of the wells in column 18. Wells in column 18 received 5 ul of assay buffer instead. Plates were centrifuged at 500 rpm for 1 minute, covered with a plate lid, and incubated at 37° C. for 2.25 hours. Plates were then removed from the incubator and allowed to cool to RT for 15 minutes. Five microliters of 2.5 nM biotin-NRF2 protein was then added to all wells of the plates and the plates were spun at 500 rpm for 1 minute, followed by incubating at 4° C. for 1.25 hours. The plates were then allowed to warm to RT for 15 minutes, followed by the addition of 10 ul of detection mix (1 nM Streptavidin Eu+W1024 and 5 ug/ml mouse anti-DYKDDDDK IgG conjugated to SureLight APC antibody; both from Columbia Biosciences) to all wells. Plates were spun at 500 rpm for 1 minute, incubated for 1 hour at RT, and read on an Envision plate reader using a 320 nm excitation filter and 615 nm and 665 nm emission filters. Compound response (% inhibition) and potency (pIC50) were calculated based on the ratio of the two emissions (665 nm/615 nm) and then the transformed data was normalized against controls in the assay (control 1=1% DMSO in the presence of NRF2 and Keap1 protein and control 2=1% DMSO in the presence of only the NRF2 protein). Data analysis was handled using the software package Abase XE (Surrey, United Kingdom). The % inhibition values were calculated from the ratio (transformed) data by the equation:
# 100−(100*(compound response−average control 2)/(average control 1−average control2)).
# For calculation of pIC50s, Abase XE used a four parameter equation.
# IC50s<10 nM (+++++), IC50s 10-100 nM (++++), IC50s 100 nM-1 uM (+++), IC50s 1-10 uM (++). and IC50s 10 uM-100 uM (+), IC50s>100 uM (−), or were not determined (ND).
# [2] = system: NQO1 specific enzyme activity in BEAS-2B cells; assay: BEAS-2B NQO1 MTT Assay; type: cell-based; settings: Homo sapiens; NQO1 specific activity induction, BEAS-2B cells, 48 hours; read-out: EC50
# Text: NAD(P)H:quinone oxidoreductase 1 (NQO1), also called DT diaphorase, is a homodimeric FAD-containing enzyme that catalyzes obligatory NAD(P)H-dependent two-electron reductions of quinones and protects cells against the toxic and neoplastic effects of free radicals and reactive oxygen species arising from one-electron reductions. The transcription of NQO1 is finely regulated by NRF2, and thus NQO1 activity is a good marker for NRF2 activation. On day one, frozen BEAS-2B cells (ATCC) were thawed in a water bath, counted, and re-suspended at a concentration of 250,000 cells/mL. Fifty microliters of cells were plated in 384 well black clear-bottomed plates. Plates were incubated at 37° C., 5% CO2 overnight. On day two, plates were centrifuged and 50 nL of compound or controls were added to the cells. Plates were then incubated at 37° C., 5% CO2 for 48 hours. On day four, medium was aspirated from the plate and crude cell lysates were made by adding 13 uL of 1× Cell Signaling Technologies lysis buffer with 1 Complete, Mini, EDTA-free Protease Inhibitor Tablet (Roche) for each 10 mL of lysis buffer. After lysis plates were incubated for 20 minutes at room temperature. Two microliters of lysate were removed for use in Cell Titer Glo assay (Promega) and MTT cocktail was prepared (Prochaska et. al. 1998) for measurement of NQO1 activity. Fifty microliters of MTT cocktail is added to each well, plate is centrifuged, and analyzed on an Envision plate reader (Perkin Elmer) using Absorbance 570 nm label for 30 minutes. Product formation was measured kinetically and the pEC50 of NQO1 specific activity induction was calculated by plotting the change in absorbance (Delta OD/min) versus the log of compound concentration followed by 3-parameter fitting. pEC50 is the negative log of the EC50.
# T1 sequence (Q14145 whole entry): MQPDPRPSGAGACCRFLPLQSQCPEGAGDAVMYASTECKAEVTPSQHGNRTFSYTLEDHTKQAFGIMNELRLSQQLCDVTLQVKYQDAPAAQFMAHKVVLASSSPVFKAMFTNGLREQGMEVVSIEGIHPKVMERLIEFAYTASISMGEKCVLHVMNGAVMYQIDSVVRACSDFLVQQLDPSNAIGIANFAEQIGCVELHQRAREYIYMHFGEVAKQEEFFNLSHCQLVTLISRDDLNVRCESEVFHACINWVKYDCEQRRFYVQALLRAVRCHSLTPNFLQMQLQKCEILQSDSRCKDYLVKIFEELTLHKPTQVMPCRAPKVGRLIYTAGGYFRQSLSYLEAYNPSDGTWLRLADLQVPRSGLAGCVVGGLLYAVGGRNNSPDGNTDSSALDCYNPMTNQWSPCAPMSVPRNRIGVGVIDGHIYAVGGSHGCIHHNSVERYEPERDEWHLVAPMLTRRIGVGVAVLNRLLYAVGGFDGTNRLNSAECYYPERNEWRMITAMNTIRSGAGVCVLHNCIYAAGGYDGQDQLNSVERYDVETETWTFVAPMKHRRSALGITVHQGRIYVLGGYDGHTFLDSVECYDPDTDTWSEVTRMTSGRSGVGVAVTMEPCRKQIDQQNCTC
SMILES,EC50 [1],EC50 [2]
"CCCCCCN(Cc1cccc(-n2ncc(C(=O)O)c2[C@@H]2C[C@H]2c2cn(C)nn2)c1)S(=O)(=O)c1ccccc1C (racemic) [Example 37, 1-(3-((N-hexyl-2-methylphenylsulfonamido)methyl)phenyl)-5-((trans)-2-(1-methyl-1H-1,2,3-triazol-4-yl)cyclo-propyl)-1H-pyrazole-4-carboxylic acid]",100 to 1000 nM,10 to 100 nM
"CCCC[C@H]1Cc2ccc(C(F)(F)F)cc2S(=O)(=O)N(Cc2cccc(-n3ncc(C(=O)O)c3[C@@H]3C[C@H]3c3cn(C)nn3)c2)C1 [Example 21, 1-(3-(((S)-4-butyl-1,1-dioxido-8-(trifluoromethyl)-4,5-dihydrobenzo[f][1,2]thiazepin-2(3H)-yl)methyl)phenyl)-5-((1R,2R)-2-(1-methyl-1H-1,2,3-triazol-4-yl)cyclopropyl)-1H-pyrazole-4-carboxylic acid]",< 10 nM,< 1 nM
"C[C@H]1Cc2cc(C(F)(F)F)ccc2S(=O)(=O)N(Cc2cccc(-n3ncc(C(=O)O)c3[C@@H]3C[C@H]3c3cn(C)nn3)c2)C1 (racemic) [Example 19, 1-(3-((4-methyl-1,1-dioxido-7-(trifluoromethyl)-4,5-dihydro-benzo[f][1,2]thiazepin-2(3H)-yl)methyl)phenyl)-5-((trans)-2-(1-methyl-1H-1,2,3-triazol-4-yl)cyclopropyl)-1H-pyrazole-4-carboxylic acid]",1000 to 10000 nM,1000 to 10000 nM
CCC1c2ccccc2OC(C)(C)CN1Cc1cccc(-n2ncc(C(=O)O)c2[C@@H]2C[C@H]2c2cn(C)nn2)c1 (stereo partly drawn) [Example 12],10000 to 100000 nM,1000 to 10000 nM
CC[C@@H]1CN(Cc2cccc(-n3ncc(C(=O)O)c3[C@@H]3C[C@H]3c3cn(CC(F)(F)F)nn3)c2)S(=O)(=O)c2ccccc2O1 [Example 29],10 to 100 nM,100 to 1000 nM
"CN(Cc1cccc(-n2ncc(C(=O)O)c2[C@@H]2C[C@H]2c2cn(C)nn2)c1)S(=O)(=O)c1ccccc1Oc1ccccc1 (relative stereo) [Example 38, 5-((trans)-2-(1-methyl-1H-1,2,3-triazol-4-yl)cyclo-propyl)-1-(3-((N-methyl-2-phenoxyphenyl-sulfonamido)-methyl)phenyl)-1H-pyrazole-4-carboxylic acid]",100 to 1000 nM,1000 to 10000 nM
Cn1cc([C@@H]2C[C@H]2c2c(C(=O)O)cnn2-c2cccc(CN3Cc4ccccc4OC(C)(C)C3)c2)nn1 (racemic) [Example 8],100 to 1000 nM,1000 to 10000 nM
CCCCCCN(Cc1cccc(-n2ncc(C(=O)O)c2[C@@H]2C[C@H]2c2cnn(C)c2)c1)S(=O)(=O)c1ccccc1C (racemic) [Example 56],10000 to 100000 nM,100 to 1000 nM
"C[C@H]1Cc2ccc(C(F)(F)F)cc2S(=O)(=O)N([C@H]2CCc3c2cccc3-n2ncc(C(=O)O)c2[C@@H]2C[C@H]2c2cn(C)nn2)C1 [Example 26a, 1-((S)-1-((S)-4-Methyl-1,1-dioxido-8-(trifluoromethyl)-4,5-dihydrobenzo[f][1,2]thiazepin-2(3H)-yl)-2,3-dihydro-1H-inden-4-yl)-5-((1R,2R)-2-(1-methyl-1H-1,2,3-triazol-4-yl)cyclopropyl)-1H-pyrazole-4-carboxylic acid]",100 to 1000 nM,100 to 1000 nM
"CN(Cc1cccc(-n2ncc(C(=O)O)c2[C@@H]2C[C@H]2c2cn(C)nn2)c1)S(=O)(=O)c1cccc(Oc2ccccc2)c1 (racemic) [Example 35, 5-((trans)-2-(1-methyl-1H-1,2,3-triazol-4-yl)cyclo-propyl)-1-(3-((N-methyl-3-phenoxy-phenyl-sulfonamido)-methyl)phenyl)-1H-pyrazole-4-carboxylic acid]",100 to 1000 nM,1000 to 10000 nM
"CCOc1ccc(Br)cc1CN(C)Cc1cccc(-n2ncc(C(=O)O)c2[C@@H]2C[C@H]2c2cn(C)nn2)c1 (racemic) [Example 54, 1-(3-(((5-bromo-2-ethoxybenzyl)(methyl)amino)methyl)phenyl)-5-((trans)-2-(1-methyl-1H-1,2,3-triazol-4-yl)cyclopropyl)-1H-pyrazole-4-carboxylic acid trifluoroacetate]",1000 to 10000 nM,100 to 1000 nM
"Cc1ccccc1S(=O)(=O)N(C)Cc1cccc(-n2ncc(C(=O)O)c2[C@@H]2C[C@H]2c2cn(C)nn2)c1 (racemic) [Example 42, 1-(3-((N,2-dimethylphenylsulfonamido)methyl)phenyl)-5-((trans)-2-(1-methyl-1H-1,2,3-triazol-4-yl)cyclopropyl)-1H-pyrazole-4-carboxylic acid]",1000 to 10000 nM,1000 to 10000 nM
Cn1cc([C@@H]2C[C@H]2c2c(C(=O)O)cnn2-c2cccc(CN3Cc4ncccc4OC(C)(C)C3)c2)nn1 (racemic) [Example 9],100 to 1000 nM,100 to 1000 nM
Cn1cc([C@@H]2C[C@H]2c2c(C(=O)O)cnn2-c2cccc(Cn3ccnc3CN3CCCCC3)c2)nn1 (racemic) [Example 24],100 to 1000 nM,1000 to 10000 nM
"COc1cc([N+](=O)[O-])ccc1S(=O)(=O)N(C)Cc1cccc(-n2ncc(C(=O)O)c2[C@@H]2C[C@H]2c2cn(C)nn2)c1 (racemic) [Example 44, 1-(3-((2-methoxy-N-methyl-4-nitrophenylsulfonamido)methyl)phenyl)-5-((trans)-2-(1-methyl-1H-1,2,3-triazol-4-yl)cyclopropyl)-1H-pyrazole-4-carboxylic acid]",1000 to 10000 nM,1000 to 10000 nM
"C[C@H]1Cc2ccc(C(F)(F)F)cc2S(=O)(=O)N(Cc2cccc(-n3ncc(C(=O)O)c3[C@@H]3C[C@H]3c3cn(C)nn3)c2)C1 (racemic) [Example 16, 1-(3-((4-methyl-1,1-dioxido-8-(trifluoromethyl)-4,5-dihydro-benzo[f][1,2]thiazepin-2(3H)-yl)methyl)phenyl)-5-((trans)-2-(1-methyl-1H-1,2,3-triazol-4-yl)cyclopropyl)-1H-pyrazole-4-carboxylic acid]",10 to 100 nM,100 to 1000 nM
CC[C@H]1Cc2ccccc2S(=O)(=O)N(Cc2cccc(-n3ncc(C(=O)O)c3[C@@H]3C[C@H]3c3cn(C)nn3)c2)C1 [Example 4],10 to 100 nM,100 to 1000 nM
Cn1cc([C@@H]2C[C@H]2c2c(C(=O)O)cnn2-c2cccc(Cn3ccnc3CC3CCCCCC3)c2)nn1 (racemic) [Example 23],10 to 100 nM,100 to 1000 nM
